In ChEMBL document CHEMBL3132769, “Fragment growing to retain or alter the selectivity of anchored kinase hinge-binding fragments” (Medchemcomm, 2014):

How the values were obtained:
[1] = target: Rho-associated protein kinase 2 (Homo sapiens) (UniProt O75116); assay: Inhibition of human ROCK2 catalytic domain expressed in baculovirus assessed as substrate phosphorylation using fluorescence-labelled peptides as substrate at 0.06 uM after 90 mins by microfluidic peptide phosphorylation assay
[2] = target: T1, Aurora kinase C (Homo sapiens) (UniProt Q9UQB9); assay: Inhibition of human full length AurC expressed in baculovirus assessed as substrate phosphorylation using fluorescence-labelled peptides as substrate at 420 uM after 90 mins by microfluidic peptide phosphorylation assay
T1 sequence (whole entry): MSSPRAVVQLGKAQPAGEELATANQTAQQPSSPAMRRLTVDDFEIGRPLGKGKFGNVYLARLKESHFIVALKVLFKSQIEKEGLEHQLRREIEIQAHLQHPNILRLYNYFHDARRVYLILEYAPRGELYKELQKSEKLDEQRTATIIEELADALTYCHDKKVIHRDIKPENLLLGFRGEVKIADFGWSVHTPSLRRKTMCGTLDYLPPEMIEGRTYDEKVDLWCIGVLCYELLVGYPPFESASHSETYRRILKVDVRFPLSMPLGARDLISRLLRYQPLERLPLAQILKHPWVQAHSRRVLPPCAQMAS

[3] = target: Calcium/calmodulin-dependent protein kinase type II subunit delta (Homo sapiens) (UniProt Q13557); assay: Inhibition of human full length CAMK2D expressed in baculovirus assessed as substrate phosphorylation using fluorescence-labelled peptides as substrate at 0.2 uM after 90 mins by microfluidic peptide phosphorylation assay
Sequence of Calcium/calmodulin-dependent protein kinase type II subunit delta (Homo sapiens) (Q13557 whole entry, the tested form may be a part): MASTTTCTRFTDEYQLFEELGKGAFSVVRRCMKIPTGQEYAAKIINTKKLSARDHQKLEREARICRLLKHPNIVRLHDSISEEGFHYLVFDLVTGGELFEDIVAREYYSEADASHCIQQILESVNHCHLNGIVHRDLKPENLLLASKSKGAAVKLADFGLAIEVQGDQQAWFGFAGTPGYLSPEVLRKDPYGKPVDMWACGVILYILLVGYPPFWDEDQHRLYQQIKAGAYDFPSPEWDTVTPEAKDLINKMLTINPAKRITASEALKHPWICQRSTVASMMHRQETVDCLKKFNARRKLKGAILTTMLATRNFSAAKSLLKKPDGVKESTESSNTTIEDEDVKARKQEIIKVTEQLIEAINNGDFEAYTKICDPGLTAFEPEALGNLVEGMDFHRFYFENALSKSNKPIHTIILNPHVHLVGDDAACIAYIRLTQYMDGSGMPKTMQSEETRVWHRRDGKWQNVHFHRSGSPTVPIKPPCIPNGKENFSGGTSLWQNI

[4] = tested on: T2, Receptor-type tyrosine-protein kinase FLT3 (Homo sapiens), P36888 [D835Y]; assay: Inhibition of human FLT3 D835Y mutant catalytic domain expressed in baculovirus assessed as substrate phosphorylation using fluorescence-labelled peptides as substrate at 0.1 uM after 90 mins by microfluidic peptide phosphorylation assay
T2 sequence (whole entry): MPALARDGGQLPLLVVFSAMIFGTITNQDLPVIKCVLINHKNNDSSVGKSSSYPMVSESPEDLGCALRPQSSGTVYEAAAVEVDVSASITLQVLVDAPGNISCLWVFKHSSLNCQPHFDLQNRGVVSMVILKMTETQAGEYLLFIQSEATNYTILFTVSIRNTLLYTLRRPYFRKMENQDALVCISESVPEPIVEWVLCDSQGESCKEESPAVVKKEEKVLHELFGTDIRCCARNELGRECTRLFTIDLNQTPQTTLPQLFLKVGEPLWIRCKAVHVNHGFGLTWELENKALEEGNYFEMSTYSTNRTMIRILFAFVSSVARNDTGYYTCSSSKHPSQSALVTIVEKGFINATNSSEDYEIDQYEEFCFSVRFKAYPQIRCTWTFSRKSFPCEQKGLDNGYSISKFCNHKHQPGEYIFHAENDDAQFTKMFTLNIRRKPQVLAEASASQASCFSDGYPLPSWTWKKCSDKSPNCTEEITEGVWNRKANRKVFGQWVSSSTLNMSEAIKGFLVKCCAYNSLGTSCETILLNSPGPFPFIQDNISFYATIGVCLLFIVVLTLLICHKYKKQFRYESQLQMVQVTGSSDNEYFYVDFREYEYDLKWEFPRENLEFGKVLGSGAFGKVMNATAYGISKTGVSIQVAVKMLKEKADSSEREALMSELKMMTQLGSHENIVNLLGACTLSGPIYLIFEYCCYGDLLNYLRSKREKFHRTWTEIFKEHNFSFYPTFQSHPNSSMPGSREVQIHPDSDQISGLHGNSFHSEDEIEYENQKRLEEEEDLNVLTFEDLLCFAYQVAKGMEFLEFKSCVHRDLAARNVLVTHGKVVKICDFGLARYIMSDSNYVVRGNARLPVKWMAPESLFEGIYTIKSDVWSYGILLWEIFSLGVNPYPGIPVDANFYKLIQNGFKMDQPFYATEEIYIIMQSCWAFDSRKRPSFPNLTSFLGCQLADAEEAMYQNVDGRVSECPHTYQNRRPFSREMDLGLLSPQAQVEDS

[5] = target: T3, Mitogen-activated protein kinase 13 (Homo sapiens) (UniProt O15264); assay: Inhibition of human full length p38 delta expressed in Escherichia coli cell assessed as substrate phosphorylation using fluorescence-labelled peptides as substrate at 8 uM after 90 mins by microfluidic peptide phosphorylation assay
T3 sequence (whole entry): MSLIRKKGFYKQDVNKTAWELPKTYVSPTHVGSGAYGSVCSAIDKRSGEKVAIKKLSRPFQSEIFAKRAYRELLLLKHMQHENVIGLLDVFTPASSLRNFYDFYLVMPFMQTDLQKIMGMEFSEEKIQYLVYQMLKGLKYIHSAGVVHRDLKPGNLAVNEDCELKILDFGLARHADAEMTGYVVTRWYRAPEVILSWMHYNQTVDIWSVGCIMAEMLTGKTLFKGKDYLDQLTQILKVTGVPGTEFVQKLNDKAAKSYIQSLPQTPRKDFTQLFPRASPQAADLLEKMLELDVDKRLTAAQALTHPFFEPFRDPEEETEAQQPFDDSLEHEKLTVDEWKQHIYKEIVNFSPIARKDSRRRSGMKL

[6] = target: Casein kinase I isoform alpha (Homo sapiens) (UniProt P48729); assay: Inhibition of human full length CSNK1A1 expressed in baculovirus assessed as substrate phosphorylation using fluorescence-labelled peptides as substrate at 8 uM after 90 mins by microfluidic peptide phosphorylation assay
Sequence of Casein kinase I isoform alpha (Homo sapiens) (P48729 2-337 limits assumed): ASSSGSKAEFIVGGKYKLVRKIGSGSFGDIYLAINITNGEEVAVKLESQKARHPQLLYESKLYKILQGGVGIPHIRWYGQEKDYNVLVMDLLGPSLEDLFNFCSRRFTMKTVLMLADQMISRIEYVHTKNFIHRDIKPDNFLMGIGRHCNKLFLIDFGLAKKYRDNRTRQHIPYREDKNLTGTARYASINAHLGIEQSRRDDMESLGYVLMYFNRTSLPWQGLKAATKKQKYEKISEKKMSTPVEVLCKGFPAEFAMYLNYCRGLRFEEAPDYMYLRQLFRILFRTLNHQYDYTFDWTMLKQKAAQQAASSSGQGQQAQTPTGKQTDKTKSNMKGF

Sequence of Rho-associated protein kinase 2 (Homo sapiens) (O75116 whole entry, looked up, the tested form may be a part): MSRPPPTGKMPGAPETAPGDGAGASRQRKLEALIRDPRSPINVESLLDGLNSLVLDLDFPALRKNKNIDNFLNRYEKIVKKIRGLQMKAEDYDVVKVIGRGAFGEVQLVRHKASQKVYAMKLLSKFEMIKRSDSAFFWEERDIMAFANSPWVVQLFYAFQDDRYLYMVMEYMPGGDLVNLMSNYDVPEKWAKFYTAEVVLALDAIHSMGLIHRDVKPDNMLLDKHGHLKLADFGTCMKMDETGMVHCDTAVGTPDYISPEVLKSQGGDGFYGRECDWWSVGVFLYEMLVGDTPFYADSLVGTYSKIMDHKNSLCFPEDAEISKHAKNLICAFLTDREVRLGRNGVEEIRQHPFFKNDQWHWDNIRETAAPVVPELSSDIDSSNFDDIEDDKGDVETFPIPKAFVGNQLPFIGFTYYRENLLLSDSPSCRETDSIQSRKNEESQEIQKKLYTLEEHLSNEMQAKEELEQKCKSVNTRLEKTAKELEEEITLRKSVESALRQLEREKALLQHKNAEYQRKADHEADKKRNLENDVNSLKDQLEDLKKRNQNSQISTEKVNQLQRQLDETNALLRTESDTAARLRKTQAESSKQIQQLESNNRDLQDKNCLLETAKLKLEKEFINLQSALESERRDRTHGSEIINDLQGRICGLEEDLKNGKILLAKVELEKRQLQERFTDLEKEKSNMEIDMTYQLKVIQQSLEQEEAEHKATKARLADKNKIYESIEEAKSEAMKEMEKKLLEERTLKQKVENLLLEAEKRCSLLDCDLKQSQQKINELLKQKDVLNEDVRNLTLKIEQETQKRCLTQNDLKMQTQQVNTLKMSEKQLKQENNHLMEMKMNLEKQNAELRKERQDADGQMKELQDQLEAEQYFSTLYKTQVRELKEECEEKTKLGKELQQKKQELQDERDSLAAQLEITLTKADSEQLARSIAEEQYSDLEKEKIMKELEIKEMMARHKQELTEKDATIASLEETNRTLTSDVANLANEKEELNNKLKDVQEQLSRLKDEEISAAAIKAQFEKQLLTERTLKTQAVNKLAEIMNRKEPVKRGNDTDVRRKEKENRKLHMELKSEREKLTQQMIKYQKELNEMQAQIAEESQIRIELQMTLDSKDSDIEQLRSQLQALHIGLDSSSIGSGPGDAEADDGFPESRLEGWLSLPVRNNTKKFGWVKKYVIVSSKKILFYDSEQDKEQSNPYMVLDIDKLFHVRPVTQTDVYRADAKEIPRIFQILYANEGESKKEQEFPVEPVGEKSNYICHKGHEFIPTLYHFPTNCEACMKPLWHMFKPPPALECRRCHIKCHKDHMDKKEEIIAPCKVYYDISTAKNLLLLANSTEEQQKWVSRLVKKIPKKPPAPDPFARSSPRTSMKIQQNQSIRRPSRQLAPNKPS

## NC1(Cc2ccc(Cl)cc2)CCN(c2ncnc3[nH]ccc23)CC1
[1]
  inhibition: 0%

## c1nc(N2CCOCC2)c2nc[nH]c2n1
[2]
  inhibition: 95.5%

## Clc1ccc(C2(c3ccc(-c4ncnc5[nH]cnc45)cc3)CCNCC2)cc1
[3]
  inhibition: 16%

## C[C@H](CN(C)C)Oc1nc(Nc2cc3cccc(Cl)c3cn2)cnc1C#N
[4]
  inhibition: 27%

## NCC1CCN(c2ncnc3[nH]ccc23)CC1
[5]
  inhibition: 5.5%
[6]
  inhibition: 32.5%
